What was measured:
[1] = system: human HSAX2655 (liposarcoma) PDX; assay: TGI PK/PD modelling, PDX rat; type: in vivo
Clinical PK = type: in vivo, human
Procedure: Pharmacokinetic data have been evaluated throughout the course of the clinical study. […] Furthermore, an integrated analysis of all available HDM201 concentrations was conducted using a population approach. The PK of HDM201 was best described by a 1-compartment PK model with a delayed zero- and first-order absorption process, and a linear clearance. Body weight was identified as a statistically significant covariate on apparent central volume of distribution (Vc/F), in which Vc/F increased with increasing body weight.
To further support the 45 mg for HDM201, compartmental PK modeling was used to estimate the individual average concentration during cycle 1 for patients with hematological tumors treated at 45 mg on regimen 2C (FIG. 2). For all patients with measured PK, the estimated average drug concentrations during cycle 1 were above the most conservative average tumor stasis concentration of about 41 ng/mL per cycle determined from PKPD modeling of preclinical data (human SJSA-1 xenograft rat model).

In the case of `COc1ncc(-c2nc3c(n2C(C)C)[C@H](c2ccc(Cl)cc2)N(c2cc(Cl)cn(C)c2=O)C3=O)c(OC)n1` [HDM201, (S)-5-(5-Chloro-1-methyl-2-oxo-1,2-dihydro-pyridin-3-yl)-6-(4-chloro-phenyl)-2-(2,4-dimethoxy-pyrimidin-5-yl)-1-isopropyl-5,6-dihydro-1H-pyrrolo[3,4-d]imidazol-4-one], the “Average concentration for tumor stasis” value [1] is reported as 19 ng/mL, the “Estimated average drug concentration during cycle 1” value (Clinical PK; 45 mg regimen 2C, all patients with measured PK, compartmental PK modeling) is reported as over 41 ng/mL and the “Dose proportionality of PK (AUClast and Cmax)” value (Clinical PK; over the dose range studied, preliminary assessment) is reported as “approximately dose proportional”.
